# Measurements from ChEMBL document CHEMBL5370604, “Identification of Micrococcin P2-Derivatives as Antibiotic Candidates against Two Gram-Positive Pathogens” (J Med Chem, 2023).
# The source made the active and inactive calls. The calls are words filed in the database; no cut-off is given here.
# What was measured:
# Clostridioides difficile [1] = test: Antibacterial activity against Clostridioides difficile RT130/ST5/A+B+CDT+ assessed as inhibition of bacterial growth measured after 24 hrs by CLSI based broth dilution method; type: functional
# Clostridioides difficile [2] = test: Antibacterial activity against Clostridioides difficile RT017/ST37/A-B+ assessed as inhibition of bacterial growth measured after 24 hrs by CLSI based broth dilution method; type: functional
# Clostridioides difficile [3] = test: Antibacterial activity against Clostridioides difficile ribotype 027 infected in colitis induced C57BL/6J mouse assessed as increase in survival rate without recurrence at 30 mg/kg, po qd pretreated with clindamycin followed by […] infection and compound addition measured on day 5; type: functional; conditions: time 5 day
# Clostridioides difficile [4] = test: Antibacterial activity against Clostridioides difficile RT014/ST14/A+B+ assessed as inhibition of bacterial growth measured after 24 hrs by CLSI based broth dilution method; type: functional
# Clostridioides difficile [5] = test: Antibacterial activity against Clostridioides difficile ribotype 027 infected in colitis induced C57BL/6J mouse assessed as increase in survival rate without recurrence at 30 mg/kg, po qd pretreated with clindamycin followed by […] infection and compound addition measured on day 15 to day 19; type: functional, organism-based; conditions: time 15-19 day
# Clostridioides difficile [6] = test: Antibacterial activity against Clostridioides difficile ribotype 027 infected in colitis induced C57BL/6J mouse assessed as survival rate at 30 mg/kg, po qd pretreated with clindamycin followed by […] infection and compound addition measured on day 5; type: functional; conditions: ribotype 027, 120 h, time 5 day
# Clostridioides difficile [7] = test: Antibacterial activity against Clostridioides difficile RT027/ST1/A+B+CDT+ assessed as inhibition of bacterial growth measured after 24 hrs by CLSI based broth dilution method; type: functional
# Clostridioides difficile [8] = test: Antibacterial activity against Clostridioides difficile NT/ST221/A+B+CDT+ assessed as inhibition of bacterial growth measured after 24 hrs by CLSI based broth dilution method; type: functional
# [9] = (§1) Toxicity in colitis-induced C57BL/6J mouse infected with Clostridioides difficile ribotype 027 assessed as increase in Enterococcus proportion in gut at 30 mg/kg, po qd pretreated with clindamycin followed by infected with […] and measured on day 20 post treatment by RNA sequencing analysis (reference value: 0%); type: organism-based; conditions: in vivo, 480 h, time 20 day
# Clostridioides difficile [10] = test: Antibacterial activity against Clostridioides difficile RT018/ST17/A+B+ assessed as inhibition of bacterial growth measured after 24 hrs by CLSI based broth dilution method; type: functional
# Clostridioides difficile [11] = test: Antibacterial activity against Clostridioides difficile RT002/ST8/A+B+ assessed as inhibition of bacterial growth measured after 24 hrs by CLSI based broth dilution method; type: functional
# [12] = as §1, with “Klebsiella” for “Enterococcus”, “6” for “20”; type: organism-based; conditions: in vivo, 144 h, time 6 day
# [13] = as §1, with “Klebsiella” for “Enterococcus”; type: organism-based; conditions: in vivo, 480 h, time 20 day
# Clostridioides difficile [14] = test: Antibacterial activity against Clostridioides difficile NT/ST67/A+B+CDT+ assessed as inhibition of bacterial growth measured after 24 hrs by CLSI based broth dilution method; type: functional
# Clostridioides difficile [15] = test: Antibacterial activity against Clostridioides difficile RT078/ST11/A+B+CDT+ assessed as inhibition of bacterial growth measured after 24 hrs by CLSI based broth dilution method; type: functional
# Clostridioides difficile [16] = test: Antibacterial activity against Clostridioides difficile RT015/ST35/A+B+ assessed as inhibition of bacterial growth measured after 24 hrs by CLSI based broth dilution method; type: functional
# Clostridioides difficile [17] = test: Antibacterial activity against Clostridioides difficile RT001/ST3/A+B+ assessed as inhibition of bacterial growth measured after 24 hrs by CLSI based broth dilution method; type: functional
# Clostridioides difficile [18] = test: Antibacterial activity against Clostridioides difficile RT012/ST54/A+B+ assessed as inhibition of bacterial growth measured after 24 hrs by CLSI based broth dilution method; type: functional
# Clostridioides difficile [19] = test: Antibacterial activity against Clostridioides difficile RT293/ST129/A+B+ assessed as inhibition of bacterial growth measured after 24 hrs by CLSI based broth dilution method; type: functional
# Clostridioides difficile [20] = test: Antibacterial activity against Clostridioides difficile ATCC 43255 assessed as inhibition of bacterial growth measured after 24 hrs by CLSI based broth dilution method; type: functional
# [21] = as §1, with “Escherichia” for “Enterococcus”, “6” for “20”; type: organism-based; conditions: in vivo, 144 h, time 6 day
# [22] = as §1, with “6” for “20”; type: organism-based; conditions: in vivo, 144 h, time 6 day
# [23] = as §1, with “Escherichia” for “Enterococcus”; type: organism-based; conditions: in vivo, 480 h, time 20 day
# Staphylococcus aureus [24] = test: Antibacterial activity against Staphylococcus aureus ATCC 4330 assessed as inhibition of bacterial growth measured after 16 to 24 hrs by CLSI based broth dilution method; type: functional; conditions: time 16-24 hrs
# Clostridioides difficile [25] = test: Antibacterial activity against Clostridioides difficile ribotype 027 infected in colitis induced C57BL/6J mouse assessed as increase in survival rate without recurrence at 30 mg/kg, po qd pretreated with clindamycin followed by […] infection and compound addition measured on day 10 to day 11; type: functional, organism-based; conditions: time 10-11 day
# [26] = Aqueous kinetic solubility of the compound at pH 7.4 incubated for 2 hrs by UPLC-MS analysis; type: physicochemical; conditions: read-out: Kinetic_solubility
# Staphylococcus aureus [27] = test: Antibacterial activity against methicillin-resistant Staphylococcus aureus assessed as inhibition of bacterial growth measured after 16 to 24 hrs by CLSI based broth dilution method; type: functional; conditions: time 16-24 hrs
smiles,measurement,setting,value
CN[C@H](CC(C)C)C(=O)N[C@H]1C(=O)N[C@@H](CC(N)=O)C(=O)N[C@H]2C(=O)N[C@H]3C(=O)N[C@H](C(=O)N[C@H](C(=O)O)c4cc(O)cc(O)c4-c4cc3ccc4O)[C@H](O)c3ccc(c(Cl)c3)Oc3cc2cc(c3O[C@@H]2O[C@H](CO)[C@@H](O)[C@H](O)[C@H]2O[C@H]2C[C@](C)(N)[C@H](O)[C@H](C)O2)Oc2ccc(cc2Cl)[C@H]1O [VANCOMYCIN],MIC,Clostridioides difficile [1],1 µg/mL
same,MIC,Clostridioides difficile [2],0.5 µg/mL
same,Activity,Clostridioides difficile [3],30%
same,MIC,Clostridioides difficile [4],1 µg/mL
same,Activity,Clostridioides difficile [5],inactive
same,survival at 30 mg/kg,Clostridioides difficile [6],40%
same,MIC,Clostridioides difficile [7],1 µg/mL
same,MIC,Clostridioides difficile [8],2 µg/mL
same,Activity,[9],21.53%
same,MIC,Clostridioides difficile [10],1 µg/mL
same,MIC,Clostridioides difficile [11],1 µg/mL
same,Activity,[12],8.78%
same,Activity,[13],1.39%
same,MIC,Clostridioides difficile [14],2 µg/mL
same,MIC,Clostridioides difficile [15],1 µg/mL
same,MIC,Clostridioides difficile [16],0.5 µg/mL
same,MIC,Clostridioides difficile [17],1 µg/mL
same,MIC,Clostridioides difficile [18],1 µg/mL
same,MIC,Clostridioides difficile [19],1 µg/mL
same,MIC,Clostridioides difficile [20],1 µg/mL
same,Activity,[21],24.55%
same,Activity,[22],0%
same,Activity,[23],5.22%
C/C=C1\NC(=O)[C@H]([C@@H](C)O)NC(=O)c2csc(n2)-c2ccc(-c3nc(-c4nc(C(=O)NC5(C(=O)NCCCN6C(=O)CNC6=O)CC5)cs4)cs3)nc2-c2csc(n2)[C@H]([C@@H](C)O)NC(=O)c2csc(n2)[C@H](C(C)C)NC(=O)c2csc1n2,MIC,Clostridioides difficile [1],0.5 µg/mL
same,MIC,Clostridioides difficile [2],0.5 µg/mL
same,MIC,Clostridioides difficile [4],0.5 µg/mL
same,MIC,Clostridioides difficile [7],0.5 µg/mL
same,MIC,Clostridioides difficile [8],0.5 µg/mL
same,MIC,Clostridioides difficile [10],0.25 µg/mL
same,MIC,Clostridioides difficile [11],0.5 µg/mL
same,MIC,Staphylococcus aureus [24],1 µg/mL
same,MIC,Clostridioides difficile [14],0.5 µg/mL
same,MIC,Clostridioides difficile [15],0.5 µg/mL
same,MIC,Clostridioides difficile [16],0.25 µg/mL
same,MIC,Clostridioides difficile [17],0.25 µg/mL
same,MIC,Clostridioides difficile [18],0.5 µg/mL
same,MIC,Clostridioides difficile [19],0.5 µg/mL
same,MIC,Clostridioides difficile [20],0.125 µg/mL
CCc1c(Cl)c(O)c(Cl)c(O)c1C(=O)O[C@H]1[C@H](O)[C@H](OC)[C@H](OC/C2=C\C=C\C[C@H](O)/C(C)=C/[C@H](CC)[C@@H](O[C@@H]3OC(C)(C)[C@@H](OC(=O)C(C)C)[C@H](O)[C@@H]3O)/C(C)=C/C(C)=C/C[C@@H]([C@@H](C)O)OC2=O)O[C@@H]1C [FIDAXOMICIN],survival at 30 mg/kg,Clostridioides difficile [6],40%
same,Activity,Clostridioides difficile [25],inactive
C/C=C(\NC(=O)c1csc(-c2csc(-c3ccc4c(n3)-c3csc(n3)[C@H]([C@@H](C)O)NC(=O)c3csc(n3)[C@H](C(C)C)NC(=O)c3csc(n3)/C(=C/C)NC(=O)[C@H]([C@@H](C)O)NC(=O)c3csc-4n3)n2)n1)C(=O)NCCN1CCN(C(C)C)CC1.Cl,solubility kinetic at 2 h,[26],3 µg/mL
C/C=C(\NC(=O)c1csc(-c2csc(-c3ccc4c(n3)-c3csc(n3)[C@H]([C@@H](C)O)NC(=O)c3csc(n3)[C@H](C(C)C)NC(=O)c3csc(n3)/C(=C/C)NC(=O)[C@H]([C@@H](C)O)NC(=O)c3csc-4n3)n2)n1)C(=O)NCCn1ccnc1[N+](=O)[O-],MIC,Staphylococcus aureus [24],1 µg/mL
same,MIC,Clostridioides difficile [20],0.5 µg/mL
C/C=C1\NC(=O)[C@H]([C@@H](C)O)NC(=O)c2csc(n2)-c2ccc(-c3nc(-c4nc(C(=O)NC5(C(=O)NCCn6c([N+](=O)[O-])cnc6C)CC5)cs4)cs3)nc2-c2csc(n2)[C@H]([C@@H](C)O)NC(=O)c2csc(n2)[C@H](C(C)C)NC(=O)c2csc1n2,MIC,Staphylococcus aureus [24],0.5 µg/mL
same,MIC,Clostridioides difficile [20],0.5 µg/mL
C/C=C(\NC(=O)c1csc(-c2csc(-c3ccc4c(n3)-c3csc(n3)[C@H]([C@@H](C)O)NC(=O)c3csc(n3)[C@H](C(C)C)NC(=O)c3csc(n3)/C(=C/C)NC(=O)[C@H]([C@@H](C)O)NC(=O)c3csc-4n3)n2)n1)C(=O)NCC(C)=O,MIC,Staphylococcus aureus [24],0.5 µg/mL
same,solubility kinetic at 2 h,[26],0.07 µg/mL
same,MIC,Clostridioides difficile [20],1 µg/mL
C/C=C1\NC(=O)[C@H]([C@@H](C)O)NC(=O)c2csc(n2)-c2ccc(-c3nc(-c4nc(C(=O)NC5(C(=O)NCCCN6CCOCC6)CC5)cs4)cs3)nc2-c2csc(n2)[C@H]([C@@H](C)O)NC(=O)c2csc(n2)[C@H](C(C)C)NC(=O)c2csc1n2,MIC,Staphylococcus aureus [24],1 µg/mL
same,MIC,Clostridioides difficile [20],1 µg/mL
C/C(=C\C(=O)OCCCCCCCCC(=O)O)C[C@@H]1OC[C@H](C[C@@H]2O[C@H]2[C@@H](C)[C@H](C)O)[C@@H](O)[C@H]1O [MUPIROCIN],MIC50,Staphylococcus aureus [27],> 8 µg/mL
